From US7094909B2, “HIV protease inhibitors, compositions containing the same, their pharmaceutical uses and materials for their synthesis” (priority 2001, dated 2006) come the findings set out here.

“And” between values parts separate entries of the source, which are not always exact repeats. Equal entries are not always repeated. Where two headings read alike, the source gives them in different places. Bounds are passed on as bounds.

Test [1] relates to HIV-1 (HIV-1 RF, HIV-1 NL4-3) in CEM-SS / MT-2 cells. The experiment in a line: Cytopathic effect (CPE) inhibition assay (XTT/MTT dye reduction). The class given is cell-based. In a few lines:
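CEM-SS or MT-2 cells were infected with HIV-1 RF or NL4-3 (moi 0.025–0.819) and plated at 2×10^4 cells/well with half-log compound dilutions for 6 days. Viability was read by XTT formazan at 450 nm after 4 h. EC50 restores formazan to 50% of uninfected untreated cells, CC50 halves it in uninfected cells, and TI = CC50/EC50.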
Background: Protection from cytopathic effect is a common read-out in antiviral testing.

Test [2] relates to HIV-1 NL4-3 or HIV-1 NL4-3(I84V/L90M). The test is described as follows: Susceptibility assay, p24 ELISA in infected MT-2 cells. It is filed as cell-based. The following applies: Human immunodeficiency virus 1, NL43, MT2, read-out: EC50 or IC50 (mM), values without asterisk (EC50). As to the method:
T-cell lines, CEM-SS, and MT-2, and viruses HIV-1 RF and HIV-1 NL4-3 (pNL4-3) were obtained from the National Institutes of Health (AIDS Research and Reference Reagent Program, Bethesda, Md.).
Compounds were tested in phenotypic susceptibility assays at Virologic, Inc., (See Petropoulos C. J., Parkin N. T., Limoli K. L., Lie Y. S., Wrin T., Huang W., Tian H., Smith D., Winslow G. A., Capon D J, Whitcomb J M. 2000, “A novel phenotypic drug susceptibility assay for human immunodeficiency virus type 1,” Antimicrob Agents Chemother 44(4):920–928) or using the assay described here. MT-2 cells were infected with either HIV-1 NL4-3 or HIV-1 NL4-3([…]) and incubated in the presence of serial 0.5 log dilutions of test compounds. Three days later, culture supernatants were collected and virus production, as determined by p24 ELISA, was assayed. Percent inhibition was calculated as p24 concentration in compound-treated samples as compared to infected, compound-free controls. Inhibition of viral replication is determined by measuring reduction in HIV p24 present in the culture supernatant, using a Beckman-Coulter p24HIV-1 Ag EIA kit and following the supplied protocol. Absorbance is read on a MRX microplate reader (Dynex Technologies). The EC50 was calculated as the concentration of compound that effected a decrease in the p24 production by infected, compound-treated cells to 50% of that produced by infected, compound-free cells.

The target in test [3] is T1, HIV-1 protease (Q7S mutant form) (Human immunodeficiency virus type 1 group M subtype B, UniProt P04585, Q495S).
T1 construct: made in house
The experiment in a line: HIV-1 Protease RET assay. The class given is biochemical. In a few lines: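 Q7S HIV-1 protease, refolded from urea, 2 nM active dimer with 5 μM EDANS/DABCYL peptide cleaved at Tyr-Pro; fluorescence 340/490 nm. 12 min at 37 °C in 0.1M sodium acetate pH 4.8, 1M NaCl, 10% DMSO. Ki from Morrison tight-binding fit.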

Where [4] appears, read: Human immunodeficiency virus 1, NL43, read-out: Ave CPE EC50.
The mark [5] stands for this setting: Ave. Ki (nM), RET assay, Q7S enzyme, Morrison tight binding fit.
[6] abbreviates: Human immunodeficiency virus 1, NL43, read-out: Ave CPE EC50 (mM).
Setting [7] is: Human immunodeficiency virus 1, NL43, unit inferred, read-out: EC50.

As for `Cc1ccccc1C(=O)N[C@@H](Cc1ccccc1)[C@H](O)C(=O)N1CSC(C)(C)[C@H]1C(=O)N[C@@H]1C=CCCC1` [Example B80, (R)-3-{(2S,3S)-2-Hydroxy-4-phenyl-3-[(1-o-tolyl-methanoyl)-amino]-butanoyl}-5,5-dimethyl-thiazolidine-4-carboxylic acid (S)-cyclohex-2-enylamide], the concentration giving a half-maximal response (EC50) in test [1] (setting [4]) worked out at 419 nM; in test [2], 1380 nM. The Ki in test [3] (setting [5]) came out at 0.15 nM.
In the same order, the values of `Cc1ccncc1CNC(=O)[C@H]1N(C(=O)[C@@H](O)[C@H](Cc2ccccc2)NC(=O)c2cccc(O)c2C)CSC1(C)C` [Example A22, 3-(2-Hydroxy-3-{[1-(3-hydroxy-2-methyl-phenyl)-methanoyl]-amino}-4-phenyl-butanoyl)-5,5-dimethyl-thiazolidine-4-carboxylic acid-(4-methyl-pyridin-3-ylmethyl)amide] are 138 nM, 318 nM and < 0.1 nM.
In the case of `Cc1c(O)cccc1C(=O)N[C@@H](Cc1ccccc1)[C@H](O)C(=O)N1CC(F)(F)C[C@H]1C(=O)N[C@@H]1C=CCCC1` [Example C4, (S)-4,4-Difluoro-1-((2S,3S)-2-hydroxy-3-{[1-(3-hydroxy-2-methyl-phenyl)-methanoyl]-amino}-4-phenyl-butanoyl)-pyrrolidine-2-carboxylic acid (S)-cyclohex-2-enylamide], the EC50 in test [1] (setting [4]) was 236 nM; in test [2] it was 1900 nM. Also, the Ki in test [3] (setting [5]) was determined as 0.17 nM.
For `Cc1c(O)cccc1C(=O)N[C@@H](Cc1ccccc1)[C@H](O)C(=O)N1CC(F)(F)C(C)(C)[C@H]1C(=O)NCC(C)C` [Example C21, 4,4-Difluoro-1-[2-hydroxy-3-(3-hydroxy-2-methyl-benzoylamino)-4-phenyl-butyryl]-3,3-dimethyl-pyrrolidine-2-carboxylic acid isobutyl-amide], in that order: 15 nM, 81 nM and < 0.1 nM.
In the same order, the values of `Cc1c(O)cccc1C(=O)N[C@@H](Cc1ccccc1)[C@H](O)C(=O)N1CSC(C)(C)[C@H]1C(=O)N[C@H]1CCc2cc(F)ccc21` [Example A56, (R)-3-((2S,3S)-2-Hydroxy-3-{[1-(3-hydroxy-2-methyl-phenyl)-methanoyl]-amino}-4-phenyl-butanoyl)-5,5-dimethyl-thiazolidine-4-carboxylic acid ((S)-5-fluoro-indan-1-yl)-amide] are 42 nM, 378 nM and 0.27 nM.
Consider `Cc1ccccc1CNC(=O)[C@@H]1CC(F)(F)CN1C(=O)[C@@H](O)[C@H](Cc1ccccc1)NC(=O)COc1c(C)cccc1C` (stereo in doubt) [Example C40, 1-{3-[2-(2,6-Dimethyl-phenoxy)-acetylamino]-2-hydroxy-4-phenyl-butyryl}-4,4-difluoro-pyrrolidine-2-carboxylic acid 2-methyl-benzylamide], for which the EC50 in test [2] stood at 1800 nM. Further, in test [3] (setting [5]), the Ki is 1.8 nM and 0.82 nM.
Consider `Cc1ccccc1CNC(=O)[C@H]1N(C(=O)[C@@H](O)[C@H](Cc2ccccc2)NC(=O)N2CC[C@@H](O)C2)CSC1(C)C` [Example B3, 3-(2-hydroxy-3-{[1-(3-hydroxy-pyrrolidin-yl)-methanoyl]-amino}-4-phenyl-butanoyl)-5,5-dimethyl-thiazolidine-4-carboxylic acid-2-methyl-benzylamide], for which, in test [1] (setting [6]), the 50% effective concentration (EC50) turned out to be 905 nM. In test [3] (setting [5]), the affinity corresponds to a Ki of 2.5 nM.
Take `Cc1c(O)cccc1C(=O)N[C@@H](Cc1ccccc1)[C@H](O)C(=O)N1CSC(C)(C)[C@H]1C(=O)NCc1ccccn1` [Example A3, (R)-3-((2S,3S)-2-Hydroxy-3-{[1-(3-hydroxy-2-methyl-phenyl)-methanoyl]-amino}-4phenyl-butanoyl)-5,5-dimethyl-thiazolidine-4-carboxylic acid (pyridin-2-ylmethyl)-amide]: in test [1] (setting [4]), the EC50 turned out to be 156 nM. Also, the inhibition constant (Ki) in test [3] (setting [5]) amounted to 0.51 nM.
Take `Cc1c(O)cccc1C(=O)N[C@@H](Cc1ccccc1)[C@H](O)C(=O)N1CSC(C)(C)[C@H]1C(=O)NC1CC1c1ccccc1` (mixture of isomers) [Example A28, (R)-3-((2S,3S)-2-Hydroxy-3-{[1-(3-hydroxy-2-methyl-phenyl)-methanoyl]-amino}-4-phenyl-butanoyl)-5,5-dimethyl-thiazolidine-4-carboxylic acid (2-phenyl-cyclopropyl)-amide]: the EC50 in test [1] (setting [4]) amounted to 327 nM. Besides, in test [3] (setting [5]), the affinity, expressed as Ki, was 3.4 nM.
For the compound `Cc1ccccc1CNC(=O)[C@H]1N(C(=O)[C@@H](O)[C@H](Cc2ccccc2)NC(=O)CCCO)CSC1(C)C` [Example B85], the half-maximal effective concentration (EC50) in test [1] (setting [4]) was found to be 363 nM. This compound had a Ki in test [3] (setting [5]) of 1.3 nM.
Take `COc1ccc(CNC(=O)[C@@H]2CC(F)(F)CN2C(=O)[C@@H](O)[C@H](Cc2ccccc2)NC(=O)c2cccc(O)c2C)cc1` [Example C13, (S)-4,4-Difluoro-1-[(2S,3S)-2-hydroxy-3-(3-hydroxy-2-methyl-benzoylamino)-4-phenyl-butyryl]-pyrrolidine-2-carboxylic acid 4-methoxy-benzylamide]: the EC50 in test [1] (setting [4]) was 1180 nM. Moreover, the Ki in test [3] (setting [5]) amounted to 0.59 nM.
For the compound `Cc1ccccc1CNC(=O)C1N(C(=O)[C@@H](O)[C@H](Cc2ccccc2)NC(=O)CSc2nc3ccccc3[nH]2)CSC1(C)C` (stereo partly shown), in test [1] (setting [7]), the EC50 was ≥ 3200 nM. For the same compound, the affinity in test [3] (Ki, unit inferred), expressed as Ki, was 17.4 nM.
`Cc1c(F)cccc1C(=O)N[C@@H](Cc1ccccc1)[C@H](O)C(=O)N1CSC(C)(C)[C@H]1C(=O)N[C@@H]1C=CCCC1` [Example B81, (R)-3-((2S,3S)-3-{[1-(3-Fluoro-2-methyl-phenyl)-methanoyl]-amino}-2-hydroxy-4-phenyl-butanoyl)-5,5-dimethyl-thiazolidine-4-carboxylic acid (S)-cyclohex-2-enylamide]: the EC50 in test [1] (setting [4]) stood at 878 nM. Affinity in test [3] (setting [5]) was put at a Ki of 0.35 nM.
For `Cc1c(O)cccc1C(=O)N[C@@H](Cc1ccccc1)[C@H](O)C(=O)N1CSC(C)(C)[C@H]1C(=O)NCc1ccc2c(c1)OC(F)(F)O2` [Example A59, (R)-3-((2S,3S)-2-Hydroxy-3-{[1-(3-hydroxy-2-methyl-phenyl)-methanoyl]-amino}-4-phenyl-butanoyl)-5,5-dimethyl-thiazolidine-4-carboxylic acid (2,2-difluoro-benzo[1,3]dioxol-5-ylmethyl)-amide], in test [1] (setting [6]), the EC50 stood at 417 nM. For the same compound, the inhibitory constant (Ki) in test [3] (setting [5]) was 0.19 nM.
As to `CC1(C)SCN(C(=O)[C@@H](O)[C@H](Cc2ccccc2)NC(=O)c2cccc3c2CCN3)[C@@H]1C(=O)NCC1CC1` [Example B28, 2,3-Dihydro-1H-indole-4-carboxylic acid {(1S,2S)-1-benzyl-3-[(R)-4-(cyclopropylmethyl-carbamoyl)-5,5-dimethyl-thiazoldin-3-yl]-2-hydroxy-3-oxo-propyl}-amide], the EC50 in test [1] (setting [4]) was found to be 731 nM. Also, the affinity in test [3] (setting [5]), expressed as Ki, was 4.2 nM.
For `Cc1cc(O)c(C)c(C(=O)N[C@@H](Cc2ccccc2)[C@H](O)C(=O)N2CC(F)(F)C(C)(C)[C@H]2C(=O)NCC(C)C)c1` [Example D5, (S)-4,4-Difluoro-1-[(2S,3S)-2-hydroxy-3-(3-hydroxy-2,5-dimethyl-benzoylamino)-4-phenyl-butyryl]-3,3-dimethyl-pyrrolidine-2-carboxylic acid isobutyl-amide], in that order: 11 nM and < 0.1 nM.
In the case of `CC1(C)SCN(C(=O)[C@@H](O)[C@H](Cc2ccccc2)NC(=O)O[C@H]2CCOC2)[C@@H]1C(=O)N[C@@H]1CCOc2ccccc21`, in test [1] (setting [7]), the EC50 was 1550 nM. This compound displayed a Ki in test [3] (Ki, unit inferred) of 3.7 nM.
In the same order, the values of `Cc1ccccc1CNC(=O)[C@H]1N(C(=O)[C@@H](O)[C@H](Cc2ccccc2)NC(=O)COc2cccc3ccccc23)CSC1(C)C` are ≥ 3200 nM and 5.8 nM.
Take `CC1(C)SCN(C(=O)[C@@H](O)[C@H](Cc2ccccc2)NC(=O)[C@@H]2CCCO2)[C@@H]1C(=O)NCc1ccco1` [Example B40, (R)-3-{(2S,3S)-2-Hydroxy-4-phenyl-3-[((S)-1-tetrahydro-furan-2-yl-methanoyl)-amino]-butanoyl}-5,5-dimethyl-thiazolidine-4-carboxylic acid (furan-2-ylmethyl)-amide]: in test [1] (setting [4]), the EC50 was > 1000 nM. The inhibition constant (Ki) in test [3] (setting [5]) was found to be 15.1 nM.

For orientation: EC50 means the concentration at which the effect is half-maximal. In general, Ki refers to a dissociation constant, usually derived from enzyme kinetics or from competition with a known ligand.
